Measurements published in patent publication US20240197742A1, “Therapeutic Combinations of a CD19 Inhibitor and a BTK Inhibitor” (Acerta Pharma B.V., priority 2015, published 2024).
“Also recorded” adds a separate entry of the source.

Columns and labels:
[1] = test system: CD8+ T cells; assay: Cytotoxic T cell (CTL) assay; format: cell-based; conditions: 500 nM, relative to vehicle
Description: Without being bound by any theory, CD8^+ T cells have two primary effector functions: (1) produce large amounts of IFN-γ (which activates macrophages), and (2) cytolytic activity. […] The targets were B lymphoblasts from lipopolysaccharide (LPS) treated cultures. The assay was performed by incubating different ratios of effectors:targets for 4 hours.

[2] = test system: CD8+ T cells; assay: CD8+ T cell viability; format: cell-based; conditions: anti-TCR and anti-CD28 coated wells, neutral conditions, 4 days
Description: Total T cells were plated on anti-TCR and anti-CD28 coated wells in the presence of both BTK inhibitors. Neutral culture conditions were used that will not polarize T cells to a helper lineage. […] Statistical significance was calculated using the Mann Whitney T-test.

[3] = within the tested dose range (through 840 mg); cited from earlier work
[4] = test system: Th17 cells; assay: Th17 development from enriched CD4+ T cells; format: cell-based; conditions: anti-TCRβ plus anti-CD28, skewing cytokines, 4 days
Description: (§1) Enriched CD4^+ T cells are plated on 24-well culture dishes that have been precoated 2 hr with 250 μL anti-TCRβ (0.5 μg/mL) plus anti-CD28 (5 μg/mL) at 37° C. in PBS. The cells are then supplemented with media containing BTK inhibitors along with the skewing cytokines as indicated in the following. The Th17 and Treg cultures are grown for 4 days before analysis. The cells are maintained for an additional 3 days with skewing cytokines (Th17; 20 ng/mL IL-6, 0.5 ng/mL TGF-β, 5 μg/mL IL-4, 5 μg/mL IFN-γ and Treg; 0.5 ng/mL TGF-β, 5 μg/mL IL-4, 5 μg/mL IFN-γ) and are supplemented with IL2 as a growth factor.

[5] = test system: B cell receptor; assay: Whole blood potency: CD69 on CD19+ B cells after anti-human IgD; format: cell-based; conditions: blood from four healthy donors, 2 hours with compound, anti-human IgD 10 μg/mL 18 hours, read-out: EC50, CD69 on gated CD19+ B cells in whole blood
[6] = test system: Raji; assay: ADCC chromium release assay, Raji targets; format: cell-based, human; conditions: 1 μM; all rituximab concentrations; healthy donor NK cells
Description: All in vitro experiments were performed in triplicate.
ADCC assays were performed as follows. Briefly, target cells (Raji or primary CLL) were labeled by incubation at 37° C. with 100 μCi ^51Cr for 4 hours prior to co-culture with NK cells. Cells were washed, enumerated, and then added in triplicate to prepared 96-well plates containing treated NK cells at an effector:target (E:T) ratio of 25:1. […] Cultures were incubated at 37° C. for 4 hours, and then centrifuged. Supernatants were harvested and ^51Cr release was measured by liquid scintillation counting. All experiments were performed in triplicate.

[7] = test system: regulatory T cell (Treg); assay: Treg development from enriched CD4+ T cells; format: cell-based; conditions: anti-TCRβ plus anti-CD28, skewing cytokines, 4 days
Description: as §1

[8] = test system: GPVI; assay: GPVI platelet aggregation (convulxin); format: cell-based, human
Description: GPVI platelet aggregation was measured for Formula (2) and Formula (10) (ibrutinib). Blood was obtained from untreated humans, and platelets were purified from […] by centrifugation. Cells were resuspended to a final concentration of 350,000/μL in buffer containing 145 mmol/L NaCl, 10 mmol/L HEPES, 0.5 mmol/L Na2HPO4, 5 mmol/L KCl, 2 mmol/L MgCl2, 1 mmol/L CaCl2, and 0.1% glucose, at pH 7.4. Stock solutions of Convulxin (CVX) GPVI were prepared on the day of experimentation and added to platelet suspensions 5 minutes (37° C., 1200 rpm) before the induction of aggregation. Aggregation was assessed with a Chronolog Lumi-Aggregometer (model 540 VS; Chronolog, Havertown, PA) and permitted to proceed for 6 minutes after the addition of agonist. The results are reported as maximum percent change in light transmittance from baseline with platelet buffer used as a reference.
In FIG. 72, the results of CVX-induced (250 ng/mL) human platelet aggregation results before and 15 minutes after administration of the BTK inhibitors to 6 healthy individuals are shown.

Structure (SMILES)	CD8+ T cell function as measured by % cytotoxicity ([1]; 4 days CTL generation)	CD8+ T cell function as measured by IFN-γ level [1]	effect on CD8+ T cell viability [2]	maximum tolerated dose (MTD) [3]	effect on Th17 cells / Th17 development [4]	effect on Th17 cells / Th17 development ([4]; listed as ibrutinib)	EC50 [5] [µM]	cell lysis, Raji [6] [%]	effect on Treg development [7]	effect on Treg development ([7]; listed as ibrutinib)	effect on GPVI platelet aggregation ([8]; CVX-induced human platelet aggregation)	IC50 ([8]; purified human platelets, convulxin (CVX)) [µM]
C=CC(=O)N1CCC[C@@H](n2nc(-c3ccc(Oc4ccccc4)cc3)c3c(N)ncnc32)C1 [Formula (10), 1-[(3R)-3-[4-amino-3-(4-phenoxyphenyl)-1H-pyrazolo[3,4-d]pyrimidin-1-yl]piperidin-1-yl]prop-2-en-1-one]	affects	significant loss of function; also recorded: affects	strong, negative effect; also recorded: strongly affects	No maximum tolerated dose (MTD) was apparent	strongly inhibits	profound inhibition	0.0061	< 20	strongly increases	increase	significantly inhibits	0.13
C=CC(=O)Nc1cccc(Nc2nc(Nc3ccc(OCCOC)cc3)ncc2F)c1 [Formula (17), N-(3-((5-fluoro-2-((4-(2-methoxyethoxy)phenyl)amino)pyrimidin-4-yl)amino)phenyl)acrylamide]							0.121					
